We go through five compounds from article PMC6515058 (International Journal of Molecular Sciences, 2019).

Like-named read-outs stand apart in the source and are kept apart here.

One data set deals with chicken intestinal P-gp. Nature of the data set: In situ single-pass intestinal perfusion of Rho123 in berberine-treated broilers. The format is in vivo. As to the method:
(§1) Arbor Acres broilers (one day old) were purchased from the Liuhe Hatchery (Nanjing, Jiangsu, China). The broilers were provided a basal diet and water ad libitum and managed under the recommended humidity and temperature for 6 weeks. Then, 18 healthy broilers with similar body weight (b.w.) were randomly divided into three groups (6 broilers/group). Group I was administered phosphate-buffered saline for 24 h (control).
The broilers were divided into three experimental groups and drugs were administered as described above. Broilers were fasted for 12 h with free access to water before the perfusion experiment. Then, the animals were anesthetized with urethane intraperitoneally (0.5 mL/kg b.w.) and an incision was made through the abdominal cavity. A 10-cm intestinal segment was carefully exposed to air for intestinal perfusion. Two polyethylene cannulas were inserted through small slits at the proximal and distal ends (inlet and outlet). Initially, the intestinal segment was gently flushed with Krebs-Ringer buffer for about 30 min until a clear effluent flowed out. Then, Rho123 (1.5 ng/mL) solution was introduced into the loop at a constant flow rate of 0.2 mL/min. The intestinal fluid was collected in bottles at the outlet of the intestine at intervals of 10 min for up to 100 min. The lengths and internal radii of the intestinal segments were measured after all of the chickens were killed by cervical dislocation.
All samples were weighed and centrifuged for 10 min at 4500 rpm. The supernatants were filtered using a 0.22-μm filter (Millipore, Burlington, MA, USA) and samples were collected for analysis by high-performance liquid chromatography (HPLC).

The test system of data set [1] is chicken P-gp. Description: Bidirectional transport of Rho123 across MDCK-chAbcb1 cell monolayer (P-gp inhibition). In kind it is cell-based. The settings on record: for Papp A→B at 80 min, 4 mM: read-out: Papp AP→BL of Rho123. On the procedure:
(§2) The MDCK-chAbcb1 cell line stably expressing chicken P-gp was previously established in our laboratory. Briefly, the full-length chicken cDNA was first cloned into the pcDNA3.1 vector and then transfected into MDCK cells using Lipofectamine 2000. Single cells stably expressing chicken P-gp were collected using the limited dilution method in medium containing hygromycin B (100 μg/mL) to obtain the MDCK-chAbcb1 cell line. The cell line was cultured in Dulbecco’s modified Eagle’s medium containing 10% fetal bovine serum, antibiotics (100 IU/mL penicillin and 80 IU/mL streptomycin), and 50 μg/mL hygromycin B and incubated at 37 °C in humidified air with 5% CO2.
The samples were collected at 20, 40, 60, and 80 min from the receiving sides and analyzed by HPLC.
(§3) In the third equation, A is the membrane surface area of the filter, C0 is the initial concentration of the test drug, dQ is the amount of transported drug, and dt is the time elapsed. In the fourth equation, Papp B→A and Papp A→B are the apparent permeability coefficients for the basolateral-to-apical and apical-to-basolateral directions, respectively.
The inhibition rate was calculated using the following equation:(5) Inhibition rate=ERcontrol−ERtreatment/ERcontrol

The test system of data set [2] is chicken P-gp. Description: Bidirectional transport of berberine across MDCK-chAbcb1 cell monolayer. As to conditions: for efflux ratio at 4 h, 100 μM: chicken. The format is in vitro ADME.
The nature of data set [3]: Bidirectional transport of berberine across MDCK parental cell monolayer. In kind it is in vitro ADME. As to conditions: dog.
The subject of a further data set is Abcb1 mRNA. Description: Abcb1 mRNA expression in the ileum of broilers by real-time RT-PCR after oral berberine. In kind it is in vivo. As to conditions: berberine 40 and 80 mg/kg, 24 h, vs control, p < 0.01. As to the method: as §1
GAPDH was used as an internal control.
On the technique in general: In qPCR the cycle at which signal appears reflects the starting amount.

On the set-up of data set [4]: method as in data published in a Chinese journal, Figure S3. As to conditions: broilers, berberine co-administration; ref data published in a Chinese journal, Figure S3; cited from earlier work.
Data set [5] deals with chicken xenobiotic receptor (CXR) mRNA. Description: CXR mRNA expression in the ileum of broilers by real-time RT-PCR after oral berberine. In kind it is in vivo. The settings on record: berberine 40 and 80 mg/kg, 24 h, vs control, p < 0.01. On the procedure:
Arbor Acres broilers (one day old) were purchased from the Liuhe Hatchery (Nanjing, Jiangsu, China). The broilers were provided a basal diet and water ad libitum and managed under the recommended humidity and temperature for 6 weeks. Then, 18 healthy broilers with similar body weight (b.w.) were randomly divided into three groups (6 broilers/group). Group I was administered phosphate-buffered saline for 24 h (control). […] Chicken treatment procedures were approved by the Science and Technology Agency of Jiangsu Province (approval no. 2017-0007, approval date: 15th, February, 2017) and performed in accordance with the guidelines of the Science and Technology Agency of Jiangsu Province and Nanjing Agricultural University. Broilers were divided into three experimental groups and drugs were administered as described above. At the end of experiments, animals were killed by decapitation. The ileum samples were collected immediately and stored at −80 °C for further tests. […] RNAs were quantified using a photometer (Eppendorf, Hamburg, Germany) at 260/280 nm. […] Chicken Abcb1 and chicken xenobiotic receptor (CXR) mRNAs were quantified using SYBR Green Realtime PCR Master Mix (Toyobo, Japan) on a real-time PCR detection system (Bio-Rad Laboratories, Hercules, CA, USA). […] Relative levels of Abcb1 and CXR were analyzed using the 2^−ΔΔCt method.

The subject of data set [6] is chicken P-gp. Description: Bidirectional transport of veterinary drugs across MDCK-chAbcb1 cell monolayer with berberine. As to conditions: for efflux ratio at 20 μM: chicken. On the procedure:
as §2
Then, the samples collected from the receiving sides were subjected to an HPLC analysis. Of note, the transport periods for all of the drugs were determined by a preliminary experiment to avoid the saturation of P-gp.
The apparent permeability coefficients (Papp) and the efflux ratio (ER) were calculated as follows:(3) Papp=dQ/dt×1/(A×Co) (4) ER=Papp(B→A)/Papp(A→B)
as §3

[7] abbreviates: chicken, control of 8 h series, no berberine.

In the data set on chicken intestinal P-gp (Arbor Acres, chicken, other: in situ single-pass intestinal perfusion), `COC(=O)c1ccccc1-c1c2ccc(=N)cc-2oc2cc(N)ccc12` [Rho123, rhodamine 123] returned an apparent permeability (Papp) at 100 min, 1.5 ng/mL of 123 ± 42 ×10⁻⁶ cm/s. Also, in the data set on chicken intestinal P-gp (control (no berberine), in situ perfusion, n = 6), the “Ka of Rho123” value worked out at 1.12 ± 0.28 min⁻¹. For the same compound, the efflux ratio at 2 h, 4 mM was 7.28 ± 0.98 with chicken P-gp [1] (chicken, control of 2 h series, no berberine, read-out: Efflux ratio of Rho123) and 6.24 ± 0.7 in the data set with chicken P-gp [1] (chicken, control of verapamil series, verapamil 0 µM, read-out: Efflux Ratio of rhodamine 123). For the same compound, the Papp A→B at 80 min, 4 mM stood at 8.86 ± 1.38 ×10⁻⁶ cm/s in the data set on chicken P-gp [1] (chicken, control of 2 h series, no berberine) and 8.62 ± 1.24 ×10⁻⁶ cm/s in the data set on chicken P-gp [1] (setting [7]). In addition, the Papp B→A at 2 h, 4 mM was determined as 62.9 ± 7.69 ×10⁻⁶ cm/s with chicken P-gp [1] (chicken, control of 2 h series, no berberine, read-out: Papp BL→AP of Rho123) and 54.4 ± 4.34 ×10⁻⁶ cm/s in the data set with chicken P-gp [1] (chicken, control of verapamil series, verapamil 0 µM, read-out: Papp BL→AP of rhodamine 123). In addition, the efflux ratio at 8 h, 4 mM in the data set with chicken P-gp [1] (setting [7]) came out at 7.24 ± 0.49. The Papp B→A at 8 h, 4 mM with chicken P-gp [1] (chicken, control of 8 h series, no berberine, read-out: Papp BL→AP of Rho123) came to 60.1 ± 5.13 ×10⁻⁶ cm/s. In addition, the Papp A→B at 2 h, 4 mM in the data set with chicken P-gp [1] (chicken, control of verapamil series, verapamil 0 µM, read-out: Papp AP→BL of rhodamine 123) was found to be 8.04 ± 0.76 ×10⁻⁶ cm/s.

In the case of `COc1ccc2cc3[n+](cc2c1OC)CCc1cc2c(cc1-3)OCO2` [berberine], in the data set on chicken intestinal P-gp (berberine 40 and 80 mg/kg, 24 h, vs control, p < 0.05), the “Rho123 concentrations in the perfusion fluid” value was “obvious decrease”. Also, the “Inhibition rate (of Rho123 efflux ratio)” value is reported as 41.48% in the data set with chicken P-gp [1] (berberine 5 μM, 2 h); 39.64% with chicken P-gp [1] (berberine 5 μM, 8 h); 53.3% in the data set on chicken P-gp [1] (berberine 20 μM, 2 h); 53.30% in the data set with chicken P-gp [1] (berberine 20 μM, 2 h, listed as Berberine); 62.57% with chicken P-gp [1] (berberine 20 μM, 8 h); 73.6% with chicken P-gp [1] (berberine 40 μM, 2 h). For the same compound, the “Inhibition rate (of Rho123 efflux ratio)” value is on record as 73.63% in the data set with chicken P-gp [1] (berberine 40 μM, 2 h, listed as Berberine) and 68.23% with chicken P-gp [1] (berberine 40 μM, 8 h). In the data set on chicken P-gp [2] (MDCK-chAbcb1 cells, without verapamil, berberine 100 μM, 4 h), the “Transport ratio (r) of berberine” value amounted to 4.2. The efflux ratio at 4 h, 100 μM in the data set on chicken P-gp [2] stood at 4.2; with chicken P-gp [2] (with verapamil 100 μM), 1.13; in data set [3], 1.24; in data set [3] (with verapamil 100 μM) it was 1.21. Moreover, the “Abcb1 mRNA level in the ileum” value with Abcb1 mRNA was “significantly down-regulated”. In addition, the “Bioavailability of orally administered enrofloxacin” value in data set [4] is given as “increases the bioavailability”. For the same compound, the “CXR mRNA level in the ileum” value in data set [5] is given as “significantly down-regulated”. Moreover, the ER of sulfadiazine entry in the data set with chicken P-gp [6] (berberine 20 μM, 2 h pre-incubation, sulfadiazine 20 μM) is reported as “did not obviously alter the ER”.

Consider `CCN1CCN(c2cc3c(cc2F)c(=O)c(C(=O)O)cn3C2CC2)CC1` [enrofloxacin], for which the efflux ratio at 20 μM with chicken P-gp [6] worked out at 2.01.

Take `Nc1ccc(S(=O)(=O)Nc2ncccn2)cc1` [sulfadiazine]: the efflux ratio at 20 μM with chicken P-gp [6] turned out to be 2.77.

As to `CC[C@H]1OC(=O)C[C@@H](O)[C@H](C)[C@@H](O[C@@H]2O[C@H](C)[C@@H](O)[C@H](N(C)C)[C@H]2O)[C@@H](CCN2C[C@H](C)C[C@H](C)C2)C[C@@H](C)C(=O)/C=C/C(C)=C/[C@@H]1CO[C@@H]1O[C@H](C)[C@@H](O)[C@@H](OC)[C@H]1OC` [tilmicosin], the efflux ratio at 20 μM with chicken P-gp [6] was 4.26.

One may read the Papp as the rate of passage across a membrane or cell layer, normalised by area and donor concentration.
